ChEMBL document CHEMBL3259595, “Nitric oxide synthase inhibitors that interact with both heme propionate and tetrahydrobiopterin show high isoform selectivity” (J Med Chem, 2014)

How the values were obtained:
[1] = molecular target: T1, Nitric oxide synthase, inducible (Mus musculus, UniProt P29477); assay: Inhibition of purified mouse iNOS assessed as inhibition of nitric oxide-mediated oxidation of hemoglobin-A by hemoglobin capture assay
T1 sequence (P29477 whole entry): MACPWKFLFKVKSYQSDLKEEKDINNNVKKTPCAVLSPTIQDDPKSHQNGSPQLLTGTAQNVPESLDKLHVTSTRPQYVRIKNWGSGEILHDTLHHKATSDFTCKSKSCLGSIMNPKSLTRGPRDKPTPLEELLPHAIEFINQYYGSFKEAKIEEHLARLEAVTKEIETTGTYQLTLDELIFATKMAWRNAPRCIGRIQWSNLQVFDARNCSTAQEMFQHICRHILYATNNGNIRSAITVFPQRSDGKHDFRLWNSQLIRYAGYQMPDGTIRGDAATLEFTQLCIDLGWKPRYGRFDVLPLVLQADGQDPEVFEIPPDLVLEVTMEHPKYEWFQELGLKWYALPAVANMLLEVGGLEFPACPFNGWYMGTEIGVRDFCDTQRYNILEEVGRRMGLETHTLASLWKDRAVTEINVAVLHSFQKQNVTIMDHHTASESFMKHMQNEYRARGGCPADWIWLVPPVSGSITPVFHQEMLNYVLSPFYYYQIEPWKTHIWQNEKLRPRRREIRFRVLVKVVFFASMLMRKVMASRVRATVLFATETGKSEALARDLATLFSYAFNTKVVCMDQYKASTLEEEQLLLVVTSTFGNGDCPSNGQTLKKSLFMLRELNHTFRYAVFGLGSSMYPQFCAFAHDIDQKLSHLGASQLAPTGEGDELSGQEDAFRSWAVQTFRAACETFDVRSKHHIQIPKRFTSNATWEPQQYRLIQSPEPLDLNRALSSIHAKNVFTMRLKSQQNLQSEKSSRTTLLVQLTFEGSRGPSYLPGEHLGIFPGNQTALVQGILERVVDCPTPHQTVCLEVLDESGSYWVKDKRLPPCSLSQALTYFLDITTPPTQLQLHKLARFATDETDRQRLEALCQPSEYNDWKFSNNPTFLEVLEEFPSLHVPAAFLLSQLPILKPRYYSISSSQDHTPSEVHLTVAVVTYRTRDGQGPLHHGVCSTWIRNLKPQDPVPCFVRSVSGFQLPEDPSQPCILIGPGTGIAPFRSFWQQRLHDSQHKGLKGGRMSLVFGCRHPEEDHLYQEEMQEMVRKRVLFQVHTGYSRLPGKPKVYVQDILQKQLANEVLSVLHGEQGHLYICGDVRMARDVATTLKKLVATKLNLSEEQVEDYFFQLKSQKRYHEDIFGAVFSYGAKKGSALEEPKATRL

[2] = Selectivity ratio of Ki for purified bovine eNOS to Ki for purified rat nNOS
[3] = Selectivity ratio of Ki for purified mouse iNOS to Ki for purified rat nNOS
[4] = molecular target: Nitric oxide synthase 1 (Rattus norvegicus, UniProt P29476); assay: Inhibition of purified rat nNOS assessed as inhibition of nitric oxide-mediated oxidation of hemoglobin-A by hemoglobin capture assay
[5] = molecular target: T2, Nitric oxide synthase 3 (Bos taurus, UniProt P29473); assay: Inhibition of purified bovine eNOS assessed as inhibition of nitric oxide-mediated oxidation of hemoglobin-A by hemoglobin capture assay
T2 sequence (P29473 whole entry): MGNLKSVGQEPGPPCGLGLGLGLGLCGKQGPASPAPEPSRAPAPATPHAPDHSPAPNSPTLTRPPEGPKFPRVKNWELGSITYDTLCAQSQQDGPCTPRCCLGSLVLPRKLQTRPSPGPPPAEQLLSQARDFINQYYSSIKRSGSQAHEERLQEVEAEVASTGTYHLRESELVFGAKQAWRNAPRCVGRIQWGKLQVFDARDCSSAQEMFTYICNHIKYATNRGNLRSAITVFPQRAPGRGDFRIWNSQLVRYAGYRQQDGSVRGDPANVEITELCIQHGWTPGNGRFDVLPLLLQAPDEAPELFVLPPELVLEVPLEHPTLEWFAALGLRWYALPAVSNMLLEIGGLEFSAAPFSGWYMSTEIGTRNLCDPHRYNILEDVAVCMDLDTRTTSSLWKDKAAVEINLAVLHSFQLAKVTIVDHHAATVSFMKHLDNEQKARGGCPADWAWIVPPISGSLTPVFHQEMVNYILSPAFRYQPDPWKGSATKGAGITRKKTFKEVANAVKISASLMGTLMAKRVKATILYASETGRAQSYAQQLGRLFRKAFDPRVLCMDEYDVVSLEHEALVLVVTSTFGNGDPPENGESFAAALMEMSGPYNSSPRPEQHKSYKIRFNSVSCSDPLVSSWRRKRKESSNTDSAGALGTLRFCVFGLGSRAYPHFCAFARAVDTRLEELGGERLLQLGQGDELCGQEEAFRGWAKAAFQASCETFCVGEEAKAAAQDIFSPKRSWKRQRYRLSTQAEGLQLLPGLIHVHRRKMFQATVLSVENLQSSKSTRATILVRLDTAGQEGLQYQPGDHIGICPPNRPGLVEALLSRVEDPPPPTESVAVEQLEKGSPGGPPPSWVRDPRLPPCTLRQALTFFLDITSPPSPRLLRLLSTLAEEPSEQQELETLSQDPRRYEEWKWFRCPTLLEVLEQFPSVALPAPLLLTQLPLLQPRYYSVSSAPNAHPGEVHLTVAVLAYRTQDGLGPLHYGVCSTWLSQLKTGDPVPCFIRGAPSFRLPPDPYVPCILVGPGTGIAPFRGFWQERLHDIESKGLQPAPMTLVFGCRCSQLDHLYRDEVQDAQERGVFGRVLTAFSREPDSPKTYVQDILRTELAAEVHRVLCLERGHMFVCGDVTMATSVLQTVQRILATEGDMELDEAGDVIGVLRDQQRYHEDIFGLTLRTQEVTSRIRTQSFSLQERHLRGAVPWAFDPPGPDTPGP

Nitric oxide synthase 1, sequence (P29476 whole entry): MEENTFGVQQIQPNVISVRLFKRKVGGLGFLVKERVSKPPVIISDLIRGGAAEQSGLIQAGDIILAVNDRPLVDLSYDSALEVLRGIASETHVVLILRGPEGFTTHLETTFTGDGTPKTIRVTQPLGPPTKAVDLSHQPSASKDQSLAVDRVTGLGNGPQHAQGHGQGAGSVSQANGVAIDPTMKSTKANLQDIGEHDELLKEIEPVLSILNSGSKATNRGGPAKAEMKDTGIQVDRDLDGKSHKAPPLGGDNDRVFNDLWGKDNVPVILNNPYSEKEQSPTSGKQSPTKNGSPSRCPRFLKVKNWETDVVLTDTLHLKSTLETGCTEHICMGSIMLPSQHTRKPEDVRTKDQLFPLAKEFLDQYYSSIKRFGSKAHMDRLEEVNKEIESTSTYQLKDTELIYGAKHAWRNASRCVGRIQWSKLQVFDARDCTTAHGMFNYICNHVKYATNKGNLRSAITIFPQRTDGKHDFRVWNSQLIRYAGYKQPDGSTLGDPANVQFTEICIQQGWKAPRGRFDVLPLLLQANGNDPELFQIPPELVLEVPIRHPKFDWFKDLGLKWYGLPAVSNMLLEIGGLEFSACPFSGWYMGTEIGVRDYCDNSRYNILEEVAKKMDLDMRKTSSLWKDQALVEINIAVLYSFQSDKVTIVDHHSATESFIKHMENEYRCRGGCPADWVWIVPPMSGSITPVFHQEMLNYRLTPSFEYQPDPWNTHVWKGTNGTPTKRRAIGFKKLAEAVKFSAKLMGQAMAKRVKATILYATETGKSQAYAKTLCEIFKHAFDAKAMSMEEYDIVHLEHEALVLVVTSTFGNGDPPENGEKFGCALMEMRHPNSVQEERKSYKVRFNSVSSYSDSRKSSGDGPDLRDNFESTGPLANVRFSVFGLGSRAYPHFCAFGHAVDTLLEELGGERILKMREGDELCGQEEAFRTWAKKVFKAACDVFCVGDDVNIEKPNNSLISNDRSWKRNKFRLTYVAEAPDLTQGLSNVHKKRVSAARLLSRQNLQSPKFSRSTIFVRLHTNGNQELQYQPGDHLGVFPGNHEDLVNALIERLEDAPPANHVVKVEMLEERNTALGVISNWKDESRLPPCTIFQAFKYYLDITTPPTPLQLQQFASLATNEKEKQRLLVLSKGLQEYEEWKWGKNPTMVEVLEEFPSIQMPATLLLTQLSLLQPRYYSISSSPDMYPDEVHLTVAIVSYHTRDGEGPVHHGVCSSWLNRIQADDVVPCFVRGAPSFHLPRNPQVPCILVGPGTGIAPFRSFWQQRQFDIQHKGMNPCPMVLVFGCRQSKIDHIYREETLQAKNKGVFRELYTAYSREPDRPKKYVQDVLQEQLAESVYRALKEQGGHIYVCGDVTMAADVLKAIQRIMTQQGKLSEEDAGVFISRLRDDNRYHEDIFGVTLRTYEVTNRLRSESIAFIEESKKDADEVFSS

Ki [4] [µM]	Structure (SMILES)	Ki [1] [µM]	Ratio Ki [2]	Ratio Ki [3]	Ki [5] [µM]
	Cc1ccnc(CCc2cccc([C@@H](N)Cc3cc(C)cc(N)n3)c2)c1	> 100	363	> 110	
0.07	Cc1cc(N)nc(CCc2cccc(C(O)Cc3cc(C)cc(N)n3)c2)c1 (configuration not stated)	5.99	52	86	3.61
0.123	Cc1cc(N)nc(CCc2cccc(C(CN)Cc3cc(C)cc(N)n3)n2)c1 (racemic)	17.9			
	Cc1ccnc(CCc2cccc([C@H](N)Cc3cc(C)cc(N)n3)c2)c1	> 100			1050
